Assay results taken from patent US9044491B2, “Method for improving blood flow using stilbenoid derivatives” (The Board of Trustees of the University of Arkansas, priority 2010, dated 2015).

Assays:
[1] = tested on: CLP or Control (Sham) mice; assay: Renal arterial blood flow by Doppler flow probe; assay type: in vivo, mouse
Text: Under isoflurane anesthesia, the right kidney was exposed by flank incision and the renal artery and vein were carefully dissected from surrounding tissue with Dumont-5 forceps. The renal artery was isolated from the vein and a Transonic Systems (Ithaca, N.Y.) 0.5 PSL renal artery Doppler flow probe was positioned around the renal artery. The probe was calibrated in water using the zero and scale settings on the TS420 flowmeter (Transonic Systems). […] Body temperature was maintained at 36 to 37° C. with a heating lamp. Data were expressed in ml/min/g kidney weight.
Renal blood flow was measured essentially as described above in Example 10 following CPL surgery or control treatment (no surgery). CPL-treated mice were administered 10 mg/kg of resveratrol, 2.5 mg/kg of resveratrol-3-sulfate, or vehicle. […] In fact, resveratrol-3-sulfate produced the same degree of reversal at 25% of the dose of resveratrol.

CLP mice [2] = assay: Systemic serum nitric oxide levels after CLP; assay type: in vivo, mouse; conditions: CLP mice at 18 hours, two doses
Experimental: Serum nitrate and […] were determined using the Total Nitric Oxide Assay Kit (Assay Designs, Ann Arbor, Mich.) as directed by the manufacturer. Data were expressed as serum nitrate+nitrate concentration in […].

[3] = tested on: cecal ligation and puncture model (CLP) of sepsis-induced renal injury; assay: Murine CLP model of sepsis, tRes 30 mg/kg (Example 5); assay type: in vivo, mouse; conditions: 30 mg/kg i.p. 30 min prior to and 6 hr post CLP; 18 hr post CLP
Text: Control (sham) mice underwent surgery but not CLP. Each treatment group contained 4-5 mice. Renal ONOO^− generation (rhodamine fluorescence) and renal peritubular capillary perfusion were quantified using intravital video microscopy (IVVM) on anesthetized mice in each of the treatment groups.

CLP mice [4] = assay: Survival study after CLP; assay type: in vivo, mouse; conditions: 10 mg/kg at 6, 12, and 18 hours following CLP, monitored for 48 h
human UGT1A1 = target: T1, human UGT1A1 (Homo sapiens, UniProt P22309); conditions: 250 μM
T1 sequence (P22309 26-533): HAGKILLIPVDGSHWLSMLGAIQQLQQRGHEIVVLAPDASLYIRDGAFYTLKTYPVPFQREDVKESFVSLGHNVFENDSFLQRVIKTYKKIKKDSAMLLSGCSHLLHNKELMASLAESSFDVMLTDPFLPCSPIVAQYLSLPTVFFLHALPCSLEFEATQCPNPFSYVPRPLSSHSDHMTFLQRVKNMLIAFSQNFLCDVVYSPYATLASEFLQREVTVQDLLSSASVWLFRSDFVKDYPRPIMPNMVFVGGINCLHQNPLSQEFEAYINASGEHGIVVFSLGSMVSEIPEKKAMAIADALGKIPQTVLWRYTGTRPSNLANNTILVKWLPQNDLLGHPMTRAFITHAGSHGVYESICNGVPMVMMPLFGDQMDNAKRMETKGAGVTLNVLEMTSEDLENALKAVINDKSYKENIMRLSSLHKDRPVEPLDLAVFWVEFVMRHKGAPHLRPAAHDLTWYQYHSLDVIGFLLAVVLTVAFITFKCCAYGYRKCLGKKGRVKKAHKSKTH
Experimental: (§1) Eight human recombinant UGT1A isoforms (UGT1A1, 1A3, 1A4, 1A6, 1A7, 1A8, 1A9, and 1A10; 5 μg) expressed as His-tag proteins in baculovirus-infected Sf9 insect cells and human liver microsomes (from one donor; HL2; 50 μg) and human intestinal microsomes (from two donors; HI36 and HI41; 50 μg) were evaluated for their ability to glucuronidate these four compounds. The concentrations of the substrate and co-substrate (i.e., UDP-GlcUA) were 250 μM and 4 mM, respectively. Glucuronidation products were analyzed by HPLC and LCMS/MS.
(§2) The kinetic constants of the glucuronidation reactions using recombinant human UGT1A1 and UGT1A10 were determined by measuring the enzyme activity in the presence of increasing concentrations of substrate (see FIG. 2).

human UGT1A10 = target: T2, human UGT1A10 (Homo sapiens, UniProt Q9HAW8); conditions: 250 μM
T2 sequence (Q9HAW8 26-530): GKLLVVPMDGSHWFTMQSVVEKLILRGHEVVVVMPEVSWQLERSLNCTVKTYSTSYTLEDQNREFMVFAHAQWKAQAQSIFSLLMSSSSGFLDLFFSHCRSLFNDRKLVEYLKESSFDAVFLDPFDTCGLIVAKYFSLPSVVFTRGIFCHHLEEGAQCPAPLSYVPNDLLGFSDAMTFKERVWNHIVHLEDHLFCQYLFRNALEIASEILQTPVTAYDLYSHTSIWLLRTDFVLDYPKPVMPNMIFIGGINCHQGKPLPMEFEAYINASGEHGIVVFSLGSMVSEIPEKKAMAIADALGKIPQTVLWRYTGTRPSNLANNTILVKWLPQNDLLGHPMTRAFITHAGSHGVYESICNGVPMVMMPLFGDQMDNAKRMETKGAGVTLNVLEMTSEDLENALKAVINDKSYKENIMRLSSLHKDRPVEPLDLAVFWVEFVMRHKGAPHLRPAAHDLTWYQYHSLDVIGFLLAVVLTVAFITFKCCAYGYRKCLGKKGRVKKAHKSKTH
Experimental: as §1, §2

CLP mice [5] = assay: Histology of renal tissue (PAS staining) after CLP; assay type: in vivo, mouse; conditions: two-dose regimen
Text: Renal tissue was also stained with periodic acid-Schiff staining to show the amount of injury to the tissue. The periodic acid-Schiff (PAS) stained sections were scored in a blinded, semi-quantitative manner. For each animal, at least 10 high power (400×) fields were examined. […] Representative PAS-stained sections are shown in FIG. 15, panels (A)-(C) 200× magnification and the tissue scores are shown in (D). CLP caused mild morphological changes characterized by […], cast formation, vacuolization, and tubule dilation. These changes were prevented by the two-dose regimen of tRes.

[6] = tested on: CLP or Control (Sham) mice; assay: Mean arterial pressure and heart rate by biotelemetry; assay type: in vivo, mouse
Experimental: Mean arterial pressure (MAP) and heart rate (HR) were monitored continuously in conscious mice using biotelemetry. Transmitters (Data Sciences International, Minneapolis Minn.) were implanted into the carotid artery under isoflurane anesthesia and the animals were allowed to recover for 48 h. Mice were re-anesthetized with isoflurane and received CLP or Control (Sham) surgery. Cardiovascular parameters were recorded for 10 s every 5 min.

CB1 receptors = assay type: biochemical, mouse; conditions: 10 μM compound, 30 min at 30° C.
[7] = CLP mice, 3, 10, or 30 mg/kg i.p. at 5.5 hours

Question: For `Oc1ccc(/C=C/c2cc(O)cc(O)c2)cc1` [tRes, trans-resveratrol], which “Renal Arterial Blood Flow (RBF)” value ([1]; CLP mice at 6 hours, 10 mg/kg via the penile vein at 5.5 hours) is on record?
Answer: The value was 2.6 ± 0.6 mL/min/g.

Question: What about the renal blood flow ([1]; CPL-treated mice, 10 mg/kg (Example 15)) of the same molecule?
Answer: The renal blood flow was “increased blood flow”.

Question: And the “Renal Arterial Blood Flow (RBF)” value ([1]; Control (Sham) mice, 10 mg/kg)?
Answer: The value was “without effect”.

Question: What about the “serum nitrate+nitrate concentration” value (CLP mice [2]) of the same molecule?
Answer: Its value is “did not affect”.

Question: And the “RNS generation in the kidney” value [3]?
Answer: Its value is “blocked”.

Question: What about the renal capillary perfusion [3] of the same molecule?
Answer: Its renal capillary perfusion is “preserved”.

Question: What about the “survival in CLP mice” value (CLP mice [4]) of the same molecule?
Answer: Its value is “significantly improve survival”.

Question: And the “glucuronide formation by UGT1A1” value (human UGT1A1)?
Answer: Its value is “glucuronidated to 3-O— and 4′-O-Glucs”.

Question: And the “glucuronide formation by UGT1A10” value (human UGT1A10)?
Answer: Its value is “glucuronidated to 3-O— and 4′-O-Glucs”.

Question: What about the “CLP-induced morphological changes of renal tissue (PAS)” value (CLP mice [5]) of the same molecule?
Answer: Its value is “prevented”.

Question: What about the “heart rate (HR)” value [6, 7] of the same molecule?
Answer: Its value is “no effect”.

Question: What about the “mean arterial pressure (MAP)” value [6, 7] of the same molecule?
Answer: The value was “no effect”.

Question: And the “heart rate (HR)” value ([6]; Control (Sham) mice)?
Answer: The value was “slightly increase”.

Question: What about the “basal G-protein activity” value (CB1 receptors) of the same molecule?
Answer: The value was “little effect”.
